The structures appear in SMILES notation.

The term IC50 denotes the midpoint of a concentration-inhibition curve.

The assay concerns the target T1, hNK2 receptor (Homo sapiens, UniProt P21452).
T1 construct: host or cells: CHO cells
T1 sequence (P21452 1-398): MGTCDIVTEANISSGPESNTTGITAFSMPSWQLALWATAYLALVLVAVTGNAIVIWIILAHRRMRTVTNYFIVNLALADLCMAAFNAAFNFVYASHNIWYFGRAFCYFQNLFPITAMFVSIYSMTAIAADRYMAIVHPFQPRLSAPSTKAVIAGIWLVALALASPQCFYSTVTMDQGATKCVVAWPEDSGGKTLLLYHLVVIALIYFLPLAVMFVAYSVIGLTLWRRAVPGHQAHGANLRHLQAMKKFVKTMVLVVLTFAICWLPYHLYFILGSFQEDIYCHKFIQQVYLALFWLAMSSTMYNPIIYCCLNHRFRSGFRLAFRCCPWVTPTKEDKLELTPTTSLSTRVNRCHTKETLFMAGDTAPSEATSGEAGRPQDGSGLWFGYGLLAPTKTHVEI
Nature of the assay: Radio-ligand ([125I]-NKA) receptor binding inhibitory activity using membrane fraction of hNK2 receptor-expressing CHO cell. The note with it: membrane fraction of hNK2 receptor-expressing CHO cells, 25° C., 30 min. How it is done: hNK2 receptor-expressing CHO cells (produced by EUROSCREEN) were cultured in HAM-F12 medium containing 400 μg/ml Geneticin, 100 U/mL penicillin, 100 μg/mL streptomycin and 10% inactivated serum. The medium was removed and adhered cells were washed with PBS, and PBS containing 5 mM EDTA was added to detach the cells from the flask. The cells were recovered by centrifugation, suspended in suspending buffer A (15 mM Tris-HCl (pH 7.5), 2 mM MgCl2, 0.3 mM EDTA, 1 mM EGTA), disrupted by POLYTRON homogenizer (manufactured by KINEMATICA) and centrifuged at 800×g for 10 min. The supernatant was recovered and ultracentrifuged at 100000×g for 25 min. The precipitated fraction was suspended in suspending buffer B (7.5 mM Tris-HCl (pH 7.5), 12.5 mM MgCl2, 0.3 mM EDTA, 1 mM, […], 250 mM Sucrose) and cryopreserved (at −80° C.) as a receptor specimen.
An assay buffer (50 μl, 50 mM Tris-HCl (pH 7.4), 0.02% bovine serum albumin, 2 μg/mL chymostatin, 40 μg/mL bacitracin, 40 μg/mL APMSF, 3 mM MnCl2) was added to a 96 well microassay plate. Thereto was added a 20 μg/mL membrane specimen suspended in the assay buffer (50 μL). An assay buffer (50 μL) containing 2% dimethyl sulfoxide was added to examine the total binding, 4 unlabeled NKA (produced by Peptide Institute, Inc.) solution (50 μL) diluted with an assay buffer containing 2% dimethyl sulfoxide was added to examine non-specific binding, and a test compound diluted with an assay buffer (50 containing 2% dimethyl sulfoxide) was added to examine the binding inhibitory activity of the test compound. Furthermore, […] [^125I]-NKA (produced by Amersham Biosciences) solution (50 μL) was added to each well.
After reaction at 25° C. for 30 min., the reaction was stopped by rapid filtration on a unifilter plate (GF/C) (manufactured by PerkinElmer) using a cell harvester (manufactured by PerkinElmer) and the cells were washed 5 times with 50 mM Tris-HCl (pH 7.4) buffer containing 0.02% bovine serum albumin (250 μL). The GF/C filter plate was dried and 20 μl, of MicroScinti-O (manufactured by PerkinElmer) was added and the radioactivity was measured in Topcount (manufactured by PerkinElmer). The GF/C filter plate, which had been immersed in 0.3% polyethyleneimine for one day, was used. Specific binding is shown by the value obtained by subtracting non-specific binding from the total binding. The binding inhibitory activity of the test compound is shown by the ratio of the value obtained by subtracting the measured value associated with the addition of the test compound from the total binding, to the value of the specific binding.
For `NC(=O)c1ccc(C(=O)N[C@@H]2CCCC[C@@H]2C(=O)N2CC[C@@H]3[C@H](c4ccc[nH]4)Nc4ccccc4[C@@H]32)cc1` [Example 323, N-((1R,2S)-2-{[(3aR,4R,9bR)-4-(1H-Pyrrol-2-yl)-2,3,3a,4,5,9b-hexahydro-1H-pyrrolo[3,2-c]quinolin-1-yl]carbonyl}cyclohexyl)terephthalamide], the half-inhibitory concentration (IC50) was under 0.001 µM.

For `O=C(N[C@@H]1CCCC[C@@H]1C(=O)N1CC[C@H]2[C@@H](c3ncc[nH]3)Nc3ccccc3[C@H]21)c1ccccc1` [Example 321, N-((1R,2S)-2-{[(3aS,4S,9bS)-4-(1H-Imidazol-2-yl)-2,3,3a,4,5,9b-hexahydro-1H-pyrrolo[3,2-c]quinolin-1-yl]carbonyl}cyclohexyl)benzamide], the IC50 was under 0.01 µM.

On to `COC[C@@H]1Nc2ccccc2[C@H]2[C@@H]1CCN2C(=O)[C@H]1CCCC[C@H]1NC(=O)c1ccc2ccccc2n1` [Example 247, N-((1R,2S)-2-{[(3aR,4R,9bR)-4-(Methoxymethyl)-2,3,3a,4,5,9b-hexahydro-1H-pyrrolo[3,2-c]quinolin-1-yl]carbonyl}cyclohexyl)quinoline-2-carboxamide], for which the IC50 was under 0.01 µM.

Turning to `O=C(N[C@@H]1CCCC[C@@H]1C(=O)N1CC[C@@H]2[C@H](c3ccc[nH]3)Nc3ccccc3[C@@H]21)c1ccccc1` [Example 64, N-((1R,2S)-2-{[(3aR,4R,9bR)-4-(1H-Pyrrol-2-yl)-2,3,3a,4,5,9b-hexahydro-1H-pyrrolo[3,2-c]quinolin-1-yl]carbonyl}cyclohexyl)benzamide], the IC50 is under 0.001 µM.

Compound `O=C(N[C@@H]1CCCC[C@@H]1C(=O)N1CC[C@@H]2[C@H](c3cocn3)Nc3ccccc3[C@@H]21)c1ccccc1` [Example 76, N-((1R,2S)-2-{[(3aR,4R,9bR)-4-(1,3-Oxazol-4-yl)-2,3,3a,4,5,9b-hexahydro-1H-pyrrolo[3,2-c]quinolin-1-yl]carbonyl}cyclohexyl)benzamide] gave an IC50 of under 0.01 µM.

`N#Cc1ccc(C(=O)N[C@@H]2CCCC[C@@H]2C(=O)N2CC[C@@H]3[C@H](c4ccccc4)Nc4ccccc4[C@@H]32)cc1` [Example 102, 4-Cyano-N-((1R,2S)-2-([(3aR,4R,9bR)-4-phenyl-2,3,3a,4,5,9b-hexahydro-1H-pyrrolo[3,2-c]quinolin-1-yl]carbonyl)cyclohexyl)benzamide] yielded an IC50 of under 0.01 µM.

Turning to `C[C@]12CCN(C(=O)[C@H]3CCCC[C@H]3NC(=O)c3ccccc3)[C@H]1c1ccccc1N[C@H]2c1ccsc1` [Example 193, N-((1R,2S)-2-{[(3aR,4R,9bR)-3a-Methyl-4-(3-thienyl)-2,3,3a,4,5,9b-hexahydro-1H-pyrrolo[3,2-c]quinolin-1-yl]carbonyl}cyclohexyl)benzamide], the IC50 was under 0.001 µM.

In the case of `CC(C)[C@@H]1Nc2ccccc2[C@H]2[C@@H]1CCN2C(=O)[C@H]1CCCC[C@H]1NC(=O)c1ccccc1` (relative stereo) [Example 28, N-((1R,2S)-2-[(3aR*,4S*, 9bR*)-4-Isopropyl-2,3,3a,4,5,9b-hexahydro-1H-pyrrolo[3,2-c]quinolin-1-yl]carbonyl)cyclohexyl)benzamide], the IC50 was under 0.01 µM.

`CCC[C@@H]1Nc2ccccc2[C@H]2[C@@H]1CCN2C(=O)[C@H]1CCCC[C@H]1NC(=O)c1ccccc1` (relative stereo) [Example 27, N-((1R,2S)-2-{[(3aR*,4S*,9bR*)-4-Propyl-2,3,3a,4,5,9b-hexahydro-1H-pyrrolo[3,2-c]quinolin-1-yl]carbonyl}cyclohexyl)benzamide] yielded an IC50 of under 0.01 µM.

Compound `O=C(N[C@@H]1CCCC[C@@H]1C(=O)N1CC[C@@H]2[C@H](c3cncs3)Nc3ccccc3[C@@H]21)c1ccccc1` [Example 78, N-((1R,2S)-2-{[(3aR,4R,9bR)-4-(1,3-Thiazol-5-yl)-2,3,3a,4,5,9b-hexahydro-1H-pyrrolo[3,2-c]quinolin-1-yl]carbonyl}cyclohexyl)benzamide] gave an IC50 of under 0.01 µM.

As to `CCOC(=O)CCNC(=O)N[C@@H]1CCCC[C@@H]1C(=O)N1CC[C@@H]2[C@H](c3ccccc3)Nc3ccccc3[C@@H]21` [Example 155, Ethyl N-{[((1R,2S)-2-{[(3aR,4R,9bR)-4-phenyl-2,3,3a,4,5,9b-hexahydro-1H-pyrrolo[3,2-c]quinolin-1-yl]carbonyl}cyclohexyl)amino]carbonyl}-beta-alaninate], the IC50 is under 0.01 µM.

`COC[C@@H]1Nc2ccccc2[C@H]2[C@@H]1CCN2C(=O)[C@H]1CCCC[C@H]1NC(=O)Nc1ccc(-n2ccnc2)cc1` [Example 277, N-[4-(1H-Imidazol-1-yl)phenyl]-N′-((1R,2S)-2-{[(3aR,4R,9bR)-4-(methoxymethyl)-2,3,3a,4,5,9b-hexahydro-1H-pyrrolo[3,2-c]quinolin-1-yl]carbonyl}cyclohexyl)urea] returned an IC50 of under 0.001 µM.

Turning to `O=C(N[C@@H]1CCCC[C@@H]1C(=O)N1CC[C@@H]2[C@H](c3ccccc3)Nc3ccccc3[C@@H]21)c1ccc2ccccc2c1` [Example 107, N-((1R,2S)-2-{[(3aR,4R,9bR)-4-Phenyl-2,3,3a,4,5,9b-hexahydro-1H-pyrrolo[3,2-c]quinolin-1-yl]carbonyl}cyclohexyl)-2-naphthamide], the IC50 is under 0.001 µM.

For the compound `O=C(/C=C/c1ccc(C(F)(F)F)cc1)N[C@@H]1CCCC[C@@H]1C(=O)N1CC[C@@H]2[C@H](c3ncc[nH]3)Nc3ccccc3[C@@H]21` [Example 294, (2E)-N-((1R,2S)-2-{[(3aR,4R,9bR)-4-(1H-Imidazol-2-yl)-2,3,3a,4,5,9b-hexahydro-1H-pyrrolo[3,2-c]quinolin-1-yl]carbonyl}cyclohexyl)-3-[4-(trifluoromethyl)phenyl]acrylamide], the IC50 is under 0.001 µM.

`O=C(N[C@@H]1CCCC[C@@H]1C(=O)N1CC[C@@H]2[C@H](C3CC3)Nc3ccccc3[C@@H]21)c1ccccc1` [Example 59, N-((1R,2S)-2-[(3aR,4S,9bR)-(4-Cyclopropyl-2,3,3a,4,5,9b-hexahydro-1H-pyrrolo[3,2-c]quinolin-1-yl)carbonyl]cyclohexyl)benzamide] displayed an IC50 of under 0.01 µM.

As for `CCC[C@@H]1Nc2ccccc2[C@H]2[C@@H]1CCN2C(=O)[C@H]1CCCC[C@H]1NC(=O)Nc1ccccc1` [Example 195, N-Phenyl-N′-((1R,2S)-2-{[(3aR,4S,9bR)-4-propyl-2,3,3a,4,5,9b-hexahydro-1H-pyrrolo[3,2-c]quinolin-1-yl]carbonyl}cyclohexyl)urea], the IC50 is under 0.001 µM.

In turn, `C[C@]12CCN(C(=O)[C@H]3CCCC[C@H]3NC(=O)c3ccccc3)[C@H]1c1ccccc1N[C@H]2c1ccccc1` [Example 83, N-((1R,2S)-2-{[(3aR,4S,9bR)-3a-Methyl-4-phenyl-2,3,3a,4,5,9b-hexahydro-1H-pyrrolo[3,2-c]quinolin-1-yl]carbonyl}cyclohexyl)benzamide] came in with a concentration for half-maximal inhibition (IC50) of under 0.01 µM.

The compound `COC[C@@H]1Nc2ccccc2[C@H]2[C@@H]1CCN2C(=O)[C@H]1CCCC[C@H]1NC(=O)c1onc2ccccc12` [Example 249, N-((1R,2S)-2-{[(3aR,4R,9bR)-4-(Methoxymethyl)-2,3,3a,4,5,9b-hexahydro-1H-pyrrolo[3,2-c]quinolin-1-yl]carbonyl}cyclohexyl)-2,1-benzisoxazole-3-carboxamide] showed an IC50 of under 0.01 µM.

The compound `CCC[C@@H]1Nc2ccccc2[C@H]2[C@@H]1CCN2C(=O)[C@H]1CCCC[C@H]1NC(=O)NCC` [Example 198, N-Ethyl-N′-((1R,2S)-2-{[(3aR,4S,9bR)-4-propyl-2,3,3a,4,5,9b-hexahydro-1H-pyrrolo[3,2-c]quinolin-1-yl]carbonyl}cyclohexyl)urea] yielded an IC50 of under 0.01 µM.

Compound `O=C(N[C@@H]1CCCC[C@@H]1C(=O)N1CC[C@@H]2[C@H](c3ccccc3)Nc3ccccc3[C@@H]21)c1ccc2[nH]cnc2c1` [Example 133, N-((1R,2S)-2-{[(3aR,4R,9bR)-4-Phenyl-2,3,3a,4,5,9b-hexahydro-1H-pyrrolo[3,2-c]quinolin-1-yl]carbonyl}cyclohexyl)-1H-benzimidazole-5-carboxamide] returned an IC50 of under 0.001 µM.

Source of the values: patent US7943770B2, “Fused quinoline derivative and use thereof” (Takeda Pharmaceutical Company Limited, priority 2004, dated 2011).
